{
  "source": "patent US11196057B2",
  "about": "“Metal-air cell with performance enhancing additive” (ARIZONA BOARD OF REGENTS ACTING FOR AND ON BEHALF OF …, priority 2010, dated 2021)",
  "key": {"[1]": {"assay": "pKa values of different proton sources (protic additives)", "details": "for pKa (H20): in water; for pKa: water"}, "[2]": {"assay": "Properties of host ionic liquid BDMeIm Tf (gravimetric, Cottrell)", "assay_type": "physicochemical", "method": "A series of protic additives were added into an ionically conductive medium in order to examine the effects of such additives upon oxygen reduction reaction (“ORR”). An aprotic ionic liquid BdMelm:Tf was used as the host for the additive. A photograph of an experimental setup is provided in FIG. 5A, with FIG. 5B showing a cartoon of a close-up of the measurement tube/chamber. […] See e.g., FIG. 5F. Also, the IL had the benefit of the superacidity of Tf, which minimizes solvent leveling effects. Additional benefits of this dry aprotic IL system include also invariant electrode, high reversibility, and high reactivity, as shown in cyclic voltammagrams (CV) in FIG. 5C and the result of the Kouteeky-Levich ([…]) analysis with respect to the number of electrons per O2 vs. potential in FIG. 5D."}, "[3]": {"details": "aqueous system; cited from earlier work"}},
  "note": "Like-named read-outs stand apart in the source and are kept apart here.",
  "data": [
    {"smiles": "Cc1nccn1C.O=S(=O)(O)C(F)(F)F", "note": "[1,2-dimethylimidaozlium triflate]", "values": [
      {"measurement": "pKa (H20)", "setting": "[1]", "value": 7.4}
    ]},
    {"smiles": "OCC(F)(F)F", "note": "[2,2,2-trifluoroethanol]", "values": [
      {"measurement": "pKa", "setting": "[1]", "value": 12.5}
    ]},
    {"smiles": "CCCCN=C(N(C)C)N(C)C", "note": "[2-butyl-1,1,3,3-tetramethylguanidinium triflate]", "values": [
      {"measurement": "pKa", "setting": "[1]", "value": 13.6}
    ]},
    {"smiles": "CCCCn1cc[n+](C)c1C.O=S(=O)([O-])C(F)(F)F", "note": "[BDMelm Tf]", "values": [
      {"measurement": "density", "setting": "[2]", "value": "about 1.4 g/mL"},
      {"measurement": "oxygen solubility", "setting": "[2]; measured gravimetrically and through Cottrell", "value": "about 2.5 mM"}
    ]},
    {"smiles": "O.O=S(=O)(O)C(F)(F)F", "note": "[hydronium triflate]", "values": [
      {"measurement": "pKa (H20)", "setting": "[1]", "value": "−1.7"}
    ]},
    {"smiles": "CCN(C)CC.O=S(=O)(O)C(F)(F)F", "note": "[n,n-diethyl-n-methylammonium triflate]", "values": [
      {"measurement": "pKa (H20)", "setting": "[1]", "value": 10.6}
    ]},
    {"smiles": "OO", "note": "[peroxide]", "values": [
      {"measurement": "pKa", "setting": "[3]", "value": 11.63}
    ]},
    {"smiles": "[O]O", "note": "[superoxide]", "values": [
      {"measurement": "pKa", "setting": "[3]", "value": "about 4.7"}
    ]}
  ]
}
